Measured values from US20070015803A1, “Methods for treating diseases through interruption of protein maturation, compounds that inhibit the function of molecular chaperones such as protein disulfide isomerases or interfere with glycosylation, pharmaceutical compositions comprising them, and screening methods for identifying therapeutic …” (Romark Laboratories L.C., priority 2005, published 2007).

How the values were obtained:
[1] = tested on: IL-1β, IL-6 and TNF-alpha; assay: Cytokine suppressing ability in cell culture; assay type: cell-based; conditions: in particular IL-1β
chronic hepatitis C = assay: Adults with chronic hepatitis C, serum virus RNA; assay type: in vivo, human; conditions: 500 mg tablet twice daily for 24 weeks
Text: (§1) Cell culture studies of the mechanism of action by which tizoxanide suppresses rotavirus infection have been carried out. […] Studies have shown that tizoxanide binds to PDI-4 of Giardia intestinalis (an extra-cellular protozoan) and that tizoxanide is effective in vitro against Giardia intestinalis. • b. Studies have shown that tizoxanide binds to PDI isolated from Neospora caninum (intracellular protozoan) and is effective in vitro against this organism. • c. […] Studies in humans have shown that adults with chronic hepatitis B or with chronic hepatitis C can be effectively treated by administering nitazoxanide 500 mg (in tablet form) twice daily for 24 weeks with the patients having undetectable virus DNA or RNA in their serum at the end of treatment.

chronic hepatitis B = assay: Adults with chronic hepatitis B, serum virus DNA; assay type: in vivo, human; conditions: 500 mg tablet twice daily for 24 weeks
Text: as §1

[2] = tested on: human colon cancer cell lines; assay: Replication of human colon cancer cell lines and other cell lines; assay type: cell-based; conditions: human colon cancer cell lines and a variety of other cell lines
Text: as §1

[3] = Human subject with elevated liver enzymes due to autoimmune hepatitis; assay type: in vivo; conditions: 500 mg twice daily orally, 10-day course
Text: as §1

rotavirus [4] = assay: Children with severe rotavirus disease, versus placebo; assay type: in vivo, human; conditions: 7.5 mg/kg twice daily oral, compared to placebo
[5] = tested on: para-influenza virus, sendai virus, influenza A virus, and/or rhinovirus; assay: In vitro or cell culture activity against viruses; assay type: cell-based
Text: (§2) The following compounds numbered 1-13 in the table below have been synthesized and tested in vitro or in cell culture against Neospora caninum (a protozoan), para-influenza virus, sendai virus, influenza A virus, and/or rhinovirus. In addition, applicant notes that compounds 12 and 13 have shown good activity against viruses and Neospora caninum.

Neospora caninum [6] = assay: In vitro or cell culture activity against Neospora caninum (compounds 1-13); assay type: cell-based
Text: as §2

Neospora caninum [7] = assay: In vitro efficacy against Neospora caninum (tizoxanide); assay type: cell-based; conditions: intracellular protozoan
Text: as §1

Giardia intestinalis = assay: In vitro efficacy against Giardia intestinalis; assay type: cell-based; conditions: extra-cellular protozoan
Text: as §1

[8] = target: T1, PDI isolated from Neospora caninum (Neospora caninum, UniProt F0VAI6); assay: Binding to PDI isolated from Neospora caninum
T1 construct: PDI isolated from Neospora caninum; from tissue; host or cells: Neospora caninum (parasite material)
Text: as §1

[9] = tested on: pro-inflammatory cytokines: IL-2, IL-4, IL-5, IL-6, IL-8, IL-10, IL-12 and TNF-alpha; assay: Secretion of pro-inflammatory cytokines; assay type: cell-based
Text: as §1

[10] = tested on: PDI-4 of Giardia intestinalis; assay: Binding to PDI-4 of Giardia intestinalis
Text: as §1

rotavirus [11] = assay: Cell culture studies of the mechanism by which tizoxanide suppresses rotavirus infection; assay type: cell-based
Text: as §1

T1 sequence (F0VAI6 entry or part of it): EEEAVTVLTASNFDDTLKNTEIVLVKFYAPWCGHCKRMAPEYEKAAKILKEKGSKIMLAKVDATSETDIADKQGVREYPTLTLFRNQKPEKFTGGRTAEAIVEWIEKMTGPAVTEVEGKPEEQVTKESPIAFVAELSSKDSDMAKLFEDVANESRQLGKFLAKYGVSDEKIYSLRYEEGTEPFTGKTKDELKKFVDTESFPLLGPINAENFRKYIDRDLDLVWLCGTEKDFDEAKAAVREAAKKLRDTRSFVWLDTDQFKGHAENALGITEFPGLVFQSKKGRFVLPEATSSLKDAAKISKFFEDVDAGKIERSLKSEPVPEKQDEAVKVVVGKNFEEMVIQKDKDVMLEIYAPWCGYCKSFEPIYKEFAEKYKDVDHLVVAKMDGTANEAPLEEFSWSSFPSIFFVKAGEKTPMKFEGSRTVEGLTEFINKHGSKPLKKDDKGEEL

CC(=O)Oc1c(C)cccc1C(=O)Nc1ncc(Br)s1 [Compound 3]
suppression of cytokines [1]: showed activity in suppressing cytokines

CC(=O)Oc1ccccc1C(=O)Nc1ncc([N+](=O)[O-])s1 [nitazoxanide]
virus RNA in serum at end of treatment (chronic hepatitis C): undetectable
virus DNA in serum at end of treatment (chronic hepatitis B): undetectable
replication of cell lines [2]: inhibits the replication
liver transaminases [3]: reduced liver transaminases to normal levels
duration of illness (rotavirus [4]): significantly reduces the duration of illness

O=C(Nc1cccc(F)c1)c1ccccc1O [Compound 12, N-(3-fluorophenyl)-2-hy-droxybenzamide]
activity against viruses [5]: good activity
activity against Neospora caninum (Neospora caninum [6]): good activity

O=C(Nc1ncc([N+](=O)[O-])s1)c1ccccc1O [tizoxanide]
efficacy in vitro (Neospora caninum [7]): effective
efficacy in vitro (Giardia intestinalis): effective
binding to PDI [8]: binds
secretion of pro-inflammatory cytokines [9]: inhibits secretion
binding to PDI-4 [10]: binds
VP7 maturation to a stage allowing glycosylation (rotavirus [11]): prevented VP7 from reaching a stage of maturation that allowed it to be glycosylated
effect on viral transcription (rotavirus [11]): did not affect
maturation of virus protein (rotavirus [11]): prevent maturation of virus protein
effect on synthesis and/or maturation of VP7 (rotavirus [11]; single protein identified as VP7): selectively affects

O=C(Nc1cccc(Cl)c1)c1ccccc1O [Compound 13, N-(3-chlorophenyl)-2-hy-droxybenzamide]
activity against viruses [5]: good activity
activity against Neospora caninum (Neospora caninum [6]): good activity
